According to ChEMBL document CHEMBL4609983, “Pan-specific and partially selective dye-labeled peptidic inhibitors of the polycomb paralog proteins” (Bioorg Med Chem, 2020):
The source made the active and inactive calls. No cut-off for these calls is given here. Non-standard residues stand in square brackets, D forms with d. Residues, ends and D or L forms follow the SMILES beside them. *: point of attachment. Biotin = O=C1N[C@H]2[C@H](CS[C@H]2CCCCC(=O)*)N1; Lys(Me3) = C[N+](C)(C)CCCC[C@H](N)C(=O)O; Benzoyl(4-Br) = O=C(c1ccc(Br)cc1)*

How the values were obtained:
[1] = biological target: T1, Chromobox protein homolog 7 (Homo sapiens) (UniProt O95931); experiment: Binding affinity to recombinant human CBX7 by microarray based assay
T1 sequence (whole entry): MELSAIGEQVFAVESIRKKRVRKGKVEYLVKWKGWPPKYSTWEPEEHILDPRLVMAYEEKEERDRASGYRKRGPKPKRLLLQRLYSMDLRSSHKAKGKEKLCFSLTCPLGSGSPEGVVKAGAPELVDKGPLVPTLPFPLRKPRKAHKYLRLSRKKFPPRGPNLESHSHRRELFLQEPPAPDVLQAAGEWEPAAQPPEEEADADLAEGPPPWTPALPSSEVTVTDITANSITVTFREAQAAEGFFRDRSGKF

[2] = biological target: T2, E3 SUMO-protein ligase CBX4 (Homo sapiens) (UniProt O00257); experiment: Binding affinity to recombinant human CBX4 by microarray based assay
T2 sequence (whole entry): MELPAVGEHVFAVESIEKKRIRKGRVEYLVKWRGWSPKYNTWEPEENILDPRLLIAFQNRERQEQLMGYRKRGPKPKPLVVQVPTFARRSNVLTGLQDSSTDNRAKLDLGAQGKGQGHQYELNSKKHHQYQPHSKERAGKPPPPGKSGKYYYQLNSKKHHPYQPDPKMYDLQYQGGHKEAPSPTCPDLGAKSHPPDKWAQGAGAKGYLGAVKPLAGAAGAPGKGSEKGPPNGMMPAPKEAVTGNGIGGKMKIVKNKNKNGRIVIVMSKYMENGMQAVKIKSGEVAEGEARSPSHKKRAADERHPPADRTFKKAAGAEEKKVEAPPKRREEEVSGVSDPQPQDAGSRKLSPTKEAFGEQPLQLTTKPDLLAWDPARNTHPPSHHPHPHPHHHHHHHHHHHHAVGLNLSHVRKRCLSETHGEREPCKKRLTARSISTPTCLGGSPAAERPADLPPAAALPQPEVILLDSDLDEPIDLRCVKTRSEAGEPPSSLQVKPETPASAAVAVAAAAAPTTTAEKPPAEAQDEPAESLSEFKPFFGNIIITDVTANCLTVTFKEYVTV

[3] = biological target: T3, Chromobox protein homolog 2 (Homo sapiens) (UniProt Q14781); experiment: Binding affinity to recombinant human CBX2 by microarray based assay
T3 sequence (whole entry): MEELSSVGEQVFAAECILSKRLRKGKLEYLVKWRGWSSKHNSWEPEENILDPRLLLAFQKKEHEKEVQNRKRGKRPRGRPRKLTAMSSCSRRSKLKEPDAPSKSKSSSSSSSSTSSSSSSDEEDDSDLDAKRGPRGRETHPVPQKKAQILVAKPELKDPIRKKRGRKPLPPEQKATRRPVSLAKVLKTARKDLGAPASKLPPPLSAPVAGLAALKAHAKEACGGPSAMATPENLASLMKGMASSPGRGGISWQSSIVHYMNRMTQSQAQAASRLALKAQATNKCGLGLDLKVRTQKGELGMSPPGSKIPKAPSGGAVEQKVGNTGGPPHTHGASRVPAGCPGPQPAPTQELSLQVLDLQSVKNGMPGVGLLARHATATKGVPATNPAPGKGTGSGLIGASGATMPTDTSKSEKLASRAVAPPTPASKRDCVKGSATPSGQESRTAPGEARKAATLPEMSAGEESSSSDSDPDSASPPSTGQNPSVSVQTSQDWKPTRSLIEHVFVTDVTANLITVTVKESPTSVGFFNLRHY

Activity [1]: Active
Activity [2]: Active
Activity [3]: Active
Structure (SMILES): CC(C)C[C@H](NC(=O)[C@H](CO)NC(=O)[C@H](CCCC[N+](C)(C)C)NC(=O)[C@H](Cc1ccc(O)cc1)NC(=O)[C@H](C)NC(=O)[C@H](Cc1ccccc1)NC(=O)c1ccc(Br)cc1)C(=O)N[C@@H](CCCCNC(=O)CCCC[C@@H]1SC[C@@H]2NC(=O)N[C@@H]21)C(N)=O ({Benzoyl(4-Br)}-FAY[Lys(Me3)]SLK(Biotin)-NH2)
